Test results taken from ChEMBL document CHEMBL1649312, “Absence of association between piperaquine in vitro responses and polymorphisms in the pfcrt, pfmdr1, pfmrp, and pfnhe genes in Plasmodium falciparum” (Antimicrob Agents Chemother, 2010).

Key:
Format in all cases: functional, organism-based
Plasmodium falciparum [1] = assay: Antimalarial activity against Plasmodium falciparum IMT L1 assessed as inhibition of [3H] incorporation after 48 hrs by scintillation counter
Plasmodium falciparum [2] = assay: Antimalarial activity against Plasmodium falciparum D6 assessed as inhibition of [3H] incorporation after 48 hrs by scintillation counter
Plasmodium falciparum [3] = assay: Antimalarial activity against Plasmodium falciparum 3D7 harboring Ppcrt I371R mutant gene and Pfnhe-1 ms4760 microsatellite mutant assessed as incorporation of [3]H hypoxanthine after 48 hrs by scintillation counter; settings: 3D7, 48 h
Plasmodium falciparum [4] = assay: Antimalarial activity against Plasmodium falciparum FCM29 assessed as inhibition of [3H] incorporation after 48 hrs by scintillation counter
Plasmodium falciparum [5] = assay: Antimalarial activity against Plasmodium falciparum IMT Bres harboring Ppcrt M74I, N75E, K76T, A220S, Q271E, N326S and I356T mutant gene, Pmdr1 N86Y mutant gene and Pfmrp H191Y and S437A mutant gene assessed as incorporation of [3]H hypoxanthine after 48 hrs by scintillation counter
Plasmodium falciparum [6] = assay: Antimalarial activity against Plasmodium falciparum IMT 10354 harboring Ppcrt M74I, N75E, K76T, A220S mutant gene, Pmdr1 D1246Y mutant gene assessed as incorporation of [3]H hypoxanthine after 48 hrs by scintillation counter; settings: IMT 10354, 48 h
Plasmodium falciparum [7] = assay: Antimalarial activity against Plasmodium falciparum FCM29 harboring Ppcrt M74I, N75E, K76T, A220S, Q271E, N326S and I356T mutant gene, Pmdr1 N86Y mutant gene and Pfmrp H191Y and S437A mutant gene assessed as incorporation of [3]H hypoxanthine after 48 hrs by scintillation counter; settings: FCM29, 48 h
Plasmodium falciparum [8] = assay: (§1) Antimalarial activity against Plasmodium falciparum IMT 8425 harboring Ppcrt I371R mutant gene and Pfnhe-1 ms4760 microsatellite mutant assessed as incorporation of [3]H hypoxanthine after 48 hrs by scintillation counter; settings: IMT 8425, 48 h
Plasmodium falciparum [9] = assay: Antimalarial activity against Plasmodium falciparum IMT 9881 harboring Ppcrt I371R mutant gene assessed as incorporation of [3]H hypoxanthine after 48 hrs by scintillation counter; settings: IMT 9881, 48 h
Plasmodium falciparum [10] = assay: Antimalarial activity against Plasmodium falciparum IMT 10336 assessed as inhibition of [3H] incorporation after 48 hrs by scintillation counter
Plasmodium falciparum [11] = assay: Antimalarial activity against Plasmodium falciparum IMT 10354 assessed as inhibition of [3H] incorporation after 48 hrs by scintillation counter
Plasmodium falciparum [12] = assay: Antimalarial activity against Plasmodium falciparum IMT K14 assessed as inhibition of [3H] incorporation after 48 hrs by scintillation counter
Plasmodium falciparum [13] = assay: Antimalarial activity against Plasmodium falciparum W2 assessed as inhibition of [3H] incorporation after 48 hrs by scintillation counter
Plasmodium falciparum [14] = assay: Antimalarial activity against Plasmodium falciparum IMT Bres assessed as inhibition of [3H] incorporation after 48 hrs by scintillation counter
Plasmodium falciparum [15] = assay: Antimalarial activity against Plasmodium falciparum IMT K4 assessed as inhibition of [3H] incorporation after 48 hrs by scintillation counter
Plasmodium falciparum [16] = assay: Antimalarial activity against Plasmodium falciparum FCR3 assessed as inhibition of [3H] incorporation after 48 hrs by scintillation counter
Plasmodium falciparum [17] = assay: Antimalarial activity against Plasmodium falciparum IMT A4 harboring Ppcrt M74I, N75E, K76T, […], Q271E, N326S and I356T mutant gene, Pmdr1 Y184F, N1042D, D1246Y mutant gene assessed as incorporation of [3]H hypoxanthine after 48 hrs by scintillation counter; settings: IMT A4, 48 h
Plasmodium falciparum [18] = assay: Antimalarial activity against Plasmodium falciparum IMT 10500 harboring Pfcrt Q271E mutant gene and Ppcrt I371R mutant gene and Pfnhe-1 ms4760 microsatellite mutant assessed as incorporation of [3]H hypoxanthine after 48 hrs by scintillation counter; settings: IMT 10500, 48 h
Plasmodium falciparum [19] = assay: as §1, with “Guy” for “8425”, “Ppcrt K76T, A220S, N326D and” for “Ppcrt”, “I371R mutant gene, Pmdr1 […], 1042D and D1246Y, mutant gene and Pfmrp H191Y and S437A” for “I371R”
Plasmodium falciparum [20] = assay: Antimalarial activity against Plasmodium falciparum PA assessed as inhibition of [3H] incorporation after 48 hrs by scintillation counter
Plasmodium falciparum [21] = assay: Antimalarial activity against Plasmodium falciparum IMT 8425 assessed as inhibition of [3H] incorporation after 48 hrs by scintillation counter
Plasmodium falciparum [22] = assay: Antimalarial activity against Plasmodium falciparum IMT K4 harboring Ppcrt M74I, N75E, K76T, A220S, Q271E, N326S mutant gene, Pmdr1 S1034C, N1042D mutant gene and Pfmrp H191Y and S437A mutant gene assessed as incorporation of [3]H hypoxanthine after 48 hrs by scintillation counter; settings: IMT K4, 48 h
Plasmodium falciparum [23] = assay: Antimalarial activity against Plasmodium falciparum IMT K14 harboring Ppcrt M74I, N75E, K76T, A220S, Q271E, N326S mutant gene, Pmdr1 Y184F, S1034C, N1042D, D1246Y mutant gene and Pfmrp H191Y and S437A mutant gene assessed as incorporation of [3]H hypoxanthine after 48 hrs by scintillation counter; settings: IMT K14, 48 h
Plasmodium falciparum [24] = assay: Antimalarial activity against Plasmodium falciparum IMT 16332 harboring Ppcrt M74I, N75E, K76T, A220S, Q271E mutant gene, Pmdr1 N86Y mutant gene assessed as incorporation of [3]H hypoxanthine after 48 hrs by scintillation counter; settings: IMT 16332, 48 h
Plasmodium falciparum [25] = assay: Antimalarial activity against Plasmodium falciparum PA harboring Ppcrt M74I, N75E, K76T, A220S, Q271E, N326S and I356T mutant gene, Pmdr1 N86Y mutant gene and Pfmrp H191Y and S437A mutant gene assessed as incorporation of [3]H hypoxanthine after 48 hrs by scintillation counter
Plasmodium falciparum [26] = assay: Antimalarial activity against Plasmodium falciparum IMT K2 assessed as inhibition of [3H] incorporation after 48 hrs by scintillation counter
Plasmodium falciparum [27] = assay: Antimalarial activity against Plasmodium falciparum 106/1 harboring Ppcrt M74I, N75E, K76T, A220S, Q271E, N326S and I356T mutant gene, Pmdr1 N86Y mutant gene and Pfmrp H191Y and S437A mutant gene assessed as incorporation of [3]H hypoxanthine after 48 hrs by scintillation counter; settings: 106/1, 48 h
Plasmodium falciparum [28] = assay: Antimalarial activity against Plasmodium falciparum IMT L1 harboring Ppcrt M74I, N75E, K76T, A220S, Q271E mutant gene, Pmdr1 N86Y mutant gene and Pfmrp H191Y and S437A mutant gene assessed as incorporation of [3]H hypoxanthine after 48 hrs by scintillation counter; settings: IMT L1, 48 h
Plasmodium falciparum [29] = assay: Antimalarial activity against Plasmodium falciparum 3D7 assessed as inhibition of [3H] incorporation after 48 hrs by scintillation counter
Plasmodium falciparum [30] = assay: Antimalarial activity against Plasmodium falciparum D6 harboring Ppcrt I371R mutant gene assessed as incorporation of [3]H hypoxanthine after 48 hrs by scintillation counter; settings: D6, 48 h
Plasmodium falciparum [31] = assay: Antimalarial activity against Plasmodium falciparum IMT A4 assessed as inhibition of [3H] incorporation after 48 hrs by scintillation counter
Plasmodium falciparum [32] = assay: Antimalarial activity against Plasmodium falciparum IMT 16332 assessed as inhibition of [3H] incorporation after 48 hrs by scintillation counter
Plasmodium falciparum [33] = assay: Antimalarial activity against Plasmodium falciparum IMT 9881 assessed as inhibition of [3H] incorporation after 48 hrs by scintillation counter
Plasmodium falciparum [34] = assay: Antimalarial activity against Plasmodium falciparum W2 harboring Ppcrt M74I, N75E, K76T, A220S, Q271E, N326S and I356T mutant gene, Pmdr1 N86Y mutant gene and Pfmrp H191Y and S437A mutant gene assessed as incorporation of [3]H hypoxanthine after 48 hrs by scintillation counter; settings: W2, 48 h
Plasmodium falciparum [35] = assay: Antimalarial activity against Plasmodium falciparum IMT 31 harboring Ppcrt I371R mutant gene assessed as incorporation of [3]H hypoxanthine after 48 hrs by scintillation counter; settings: IMT 31, 48 h
Plasmodium falciparum [36] = assay: Antimalarial activity against Plasmodium falciparum FCR3 harboring Ppcrt M74I, N75E, K76T, A220S, Q271E, N326S and I356T mutant gene, Pmdr1 N86Y mutant gene and Pfmrp H191Y and S437A mutant gene assessed as incorporation of [3]H hypoxanthine after 48 hrs by scintillation counter; settings: FCR3, 48 h
Plasmodium falciparum [37] = assay: Antimalarial activity against Plasmodium falciparum HB3 harboring Ppcrt I371R mutant gene and Pfmdr1 Y184F mutant gene assessed as incorporation of [3]H hypoxanthine after 48 hrs by scintillation counter; settings: HB3, 48 h
Plasmodium falciparum [38] = assay: Antimalarial activity against Plasmodium falciparum IMT Vol assessed as inhibition of [3H] incorporation after 48 hrs by scintillation counter
Plasmodium falciparum [39] = assay: Antimalarial activity against Plasmodium falciparum IMT Vol harboring Ppcrt M74I, N75E, K76T, A220S, Q271E, N326S mutant gene, Pmdr1 N86Y mutant gene and Pfmrp H191Y and S437A mutant gene assessed as incorporation of [3]H hypoxanthine after 48 hrs by scintillation counter
Plasmodium falciparum [40] = assay: Antimalarial activity against Plasmodium falciparum IMT 10336 harboring Pfcrt Q271E mutant gene and Ppcrt I371R mutant gene assessed as incorporation of [3]H hypoxanthine after 48 hrs by scintillation counter; settings: IMT 10336, 48 h
Plasmodium falciparum [41] = assay: Antimalarial activity against Plasmodium falciparum IMT 31 assessed as inhibition of [3H] incorporation after 48 hrs by scintillation counter
Plasmodium falciparum [42] = assay: Antimalarial activity against Plasmodium falciparum IMT 10500 assessed as inhibition of [3H] incorporation after 48 hrs by scintillation counter
Plasmodium falciparum [43] = assay: Antimalarial activity against Plasmodium falciparum IMT K2 harboring Ppcrt M74I, N75E, K76T, A220S, Q271E, N326S mutant gene, Pmdr1 S1034C, N1042D mutant gene and Pfmrp H191Y and S437A mutant gene assessed as incorporation of [3]H hypoxanthine after 48 hrs by scintillation counter; settings: IMT K2, 48 h
Plasmodium falciparum [44] = assay: Antimalarial activity against Plasmodium falciparum HB3 assessed as inhibition of [3H] incorporation after 48 hrs by scintillation counter
Plasmodium falciparum [45] = assay: Antimalarial activity against Plasmodium falciparum IMT Guy assessed as inhibition of [3H] incorporation after 48 hrs by scintillation counter
Plasmodium falciparum [46] = assay: Antimalarial activity against Plasmodium falciparum 106/1 assessed as inhibition of [3H] incorporation after 48 hrs by scintillation counter

## C[C@H]1[C@@H](O)O[C@@H]2O[C@@]3(C)CC[C@H]4[C@H](C)CC[C@@H]1[C@@]24OO3 [ARTENIMOL]
Plasmodium falciparum [1]
  IC50: 0.9 nM
Plasmodium falciparum [2]
  IC50: 1.4 nM
Plasmodium falciparum [3]
  IC50: 2.8 nM
Plasmodium falciparum [4]
  IC50: 1.3 nM
Plasmodium falciparum [5]
  IC50: 1.4 nM
Plasmodium falciparum [6]
  IC50: 0.4 nM
Plasmodium falciparum [7]
  IC50: 1.3 nM
Plasmodium falciparum [8]
  IC50: 1.7 nM
Plasmodium falciparum [9]
  IC50: 3.5 nM
Plasmodium falciparum [10]
  IC50: 1.6 nM
Plasmodium falciparum [11]
  IC50: 0.4 nM
Plasmodium falciparum [12]
  IC50: 2.1 nM
Plasmodium falciparum [13]
  IC50: 3 nM
Plasmodium falciparum [14]
  IC50: 1.4 nM
Plasmodium falciparum [15]
  IC50: 3.4 nM
Plasmodium falciparum [16]
  IC50: 1.6 nM
Plasmodium falciparum [17]
  IC50: 1.5 nM
Plasmodium falciparum [18]
  IC50: 3.3 nM
Plasmodium falciparum [19]
  IC50: 1.8 nM
Plasmodium falciparum [20]
  IC50: 1.4 nM
Plasmodium falciparum [21]
  IC50: 1.7 nM
Plasmodium falciparum [22]
  IC50: 3.4 nM
Plasmodium falciparum [23]
  IC50: 2.1 nM
Plasmodium falciparum [24]
  IC50: 1.1 nM
Plasmodium falciparum [25]
  IC50: 1.4 nM
Plasmodium falciparum [26]
  IC50: 1.2 nM
Plasmodium falciparum [27]
  IC50: 5.8 nM
Plasmodium falciparum [28]
  IC50: 0.9 nM
Plasmodium falciparum [29]
  IC50: 2.8 nM
Plasmodium falciparum [30]
  IC50: 1.4 nM
Plasmodium falciparum [31]
  IC50: 1.5 nM
Plasmodium falciparum [32]
  IC50: 1.1 nM
Plasmodium falciparum [33]
  IC50: 3.5 nM
Plasmodium falciparum [34]
  IC50: 3 nM
Plasmodium falciparum [35]
  IC50: 1.7 nM
Plasmodium falciparum [36]
  IC50: 1.6 nM
Plasmodium falciparum [37]
  IC50: 3 nM
Plasmodium falciparum [38]
  IC50: 1.2 nM
Plasmodium falciparum [39]
  IC50: 1.2 nM
Plasmodium falciparum [40]
  IC50: 1.6 nM
Plasmodium falciparum [41]
  IC50: 1.7 nM
Plasmodium falciparum [42]
  IC50: 3.3 nM
Plasmodium falciparum [43]
  IC50: 1.2 nM

## CCNCc1cc(Nc2ccnc3cc(Cl)ccc23)ccc1O [DESETHYL AMODIAQUINE]
Plasmodium falciparum [1]
  IC50: 85 nM
Plasmodium falciparum [2]
  IC50: 23 nM
Plasmodium falciparum [4]
  IC50: 314 nM
Plasmodium falciparum [11]
  IC50: 20 nM
Plasmodium falciparum [12]
  IC50: 166 nM
Plasmodium falciparum [13]
  IC50: 135 nM
Plasmodium falciparum [14]
  IC50: 104 nM
Plasmodium falciparum [15]
  IC50: 113 nM
Plasmodium falciparum [44]
  IC50: 32 nM
Plasmodium falciparum [20]
  IC50: 119 nM
Plasmodium falciparum [21]
  IC50: 27 nM
Plasmodium falciparum [45]
  IC50: 45 nM
Plasmodium falciparum [29]
  IC50: 26 nM
Plasmodium falciparum [31]
  IC50: 123 nM
Plasmodium falciparum [32]
  IC50: 52 nM
Plasmodium falciparum [33]
  IC50: 34 nM
Plasmodium falciparum [38]
  IC50: 82 nM
Plasmodium falciparum [41]
  IC50: 29 nM
Plasmodium falciparum [46]
  IC50: 32 nM
Plasmodium falciparum [42]
  IC50: 40 nM
